# Values joined by “and” are separate entries in the source; they are usually repeats but may differ in a detail not shown here. Equal values may be shown once.
# Tests used:
# [1] = system: males and females with hair-loss problems; experiment: In vivo test: capillary (hair) density by Trichoscan microphotography in volunteers; parameters: species or system human
# Procedure: Curcuma longa cell-free supernatant prepared as indicated in Example 2, as well as the peptide of SEQ ID NO: 6 in the PBS buffered fortifying solution 2× disclosed in Example 1 were tested in males and females (n=60, from 18 to 60 years old) with hair-loss problems. There were excluded those volunteers that received a capillary treatment three months before the assay, volunteers with cutanic pathologies at scalp (psoriasis, dermatitis, etc.) and allergy to compounds in the formulations.
# Tested compounds were daily applied.
# At time 0 (T0) there were taken scalp pictures (frontal and occipital parts), trichograms for determining the hair phase cycle (telogen or anagen phase), the combing test (number of hair lost during combing), and capillary density by microphotography with Trichoscan®.
# At t=45 days and t=90 days, there were performed the combing test and the density tests (Trichoscan®)
# At t=150 days again as in t=0.
# Volunteers were separated in three groups. Group 1 receiving SEQ ID NO: 6 in the PBS buffered fortifying solution 2× disclosed in Example 1; Group 2 receiving Curcuma longa cell-free supernatant prepared as indicated in Example 2, and Group 3 the placebo.
# Data are depicted in next Table 2 for capillary density. This table includes the average values determined of capillary density increase after evaluating in each volunteer the number of hairs in a 0.25 cm^2 are, capillary density at t=0 and t=90, and said increase in relation to t=0 value
# [2] = system: human dermal fibroblasts (HDF); experiment: Wound healing (scratch) assay on human dermal fibroblasts; type: cell-based; conditions: FIG. 17; 5 μg/ml and 0.05 μg/ml; 5 days of treatment; triplicate mean; vs 0.1% FBS basal, 10% FBS and TGF-β1 positive controls
# Procedure: In order to test the effect of the sulfaction state of the peptides on their activity, it is herewith provided as reference example a wound healing assay conducted onto human dermal fibroblasts (HDF).
# Human dermal fibroblasts were seeded in a 24-well plate and were grown to confluence. A 2 mm width scratch was done on the culture monolayer. Then the test products in culture medium were added and the cicatrisation process was followed by means of phase contrast microscopy. With this aim, photographs were taken at initial of the test (T=0 h) before the scratching and after the treatment (at 12 h and at 72 h). Cicatrisation process was evaluated by quantifying wound area reduction at each time.
# Data at the end of the test (5 days of treatment) are depicted in FIG. 17, wherein the wound healing potential is depicted as the Healed Area (in μm^2) for assayed peptide.
# The results derive from a triplicate test. Values of cicatrised area (or % of cicatrisation) are the mean values.
# [3] = system: human dermal fibroblasts (HDF); experiment: In vitro proliferation of human dermal fibroblasts (BrdU incorporation); type: cell-based; conditions: basal control = 100%
# Procedure: In order to further test the effects of the peptides of the invention in an additional setting, a proliferation assay was conducted onto human dermal fibroblasts (HDF).
# Normal Human Dermal Fibroblasts (HDF) were obtained from foreskin samples, surpluses from surgery of young donors (0-3 years old) and stablished by using the standard method of explants growth and enzymic dissociation of proliferating cells. Cells were propagated and grown in Growth Medium (GM): Dulbecco's 1 g/L glucose medium, supplemented with 10% foetal bovine serum (FBS, PAA); 2 mM L-glutamine (Lonza); and antibiotics (100 μg/ml Penicillin and 100 U/ml of Streptomycin, Lonza). For routine subcultivation and propagation of the primary culture, cells were washed twice with PBS ([…] buffered saline, pH 7.4), harvested with trypsin—EDTA (Gibco) and counted in Neubauer chamber before its seeding in a new cell culture flask (Falcon, 75 cm2).
# Test products were prepared at the defined final concentrations by its dilution in Maintenance Medium (Dulbecco's 1 g/L glucose medium, supplemented with 1% foetal bovine serum (FBS, PAA); 2 mM L-glutamine (Lonza); and antibiotics (100 μg/ml Penicillin and 100 U/ml of Streptomycin, Lonza), just before each application.
# HFD proliferation was assessed determining the proliferation index (%). Cell DNA replication was quantified by means of incorporated bromodeoxiuridine (BrdU) into DNA of treated cells. […] Cells being divided incorporated BrdU that is further detected by means of antibodies and immunocytochemistry detection. […]
# Data are depicted in FIG. 6 and FIG. 7, wherein it is shown the proliferation index (%) of HDF, calculated as the percentage of growing in relation to the basal control (non-treated HDF) which is accorded a 100% value of proliferation index. […]
# Data are depicted in FIG. 16, wherein it is shown the proliferation index (%) of HDF, calculated as the percentage of growing in relation to the basal control (non-treated HDF) which is accorded a 100% value of proliferation index.
# [4] = system: insulin growth factor 1 (IGF-1); experiment: IGF-1 levels in secretomas of treated HFDPC; type: cell-based, human; conditions: 24 h and 48 h after treatment, data not shown
# Procedure: Secretomas (supernatants that could be recovered from the HFDPC cultures challenged with the tested materials of Table 1) were analysed for detecting the presence and levels of animal cell growth factors and of microRNAs associated with hair growth in dermal papilla. […] Similar results (at 24 and 48 h) were observed when analysing the levels of fibroblast growth factor 7 (FGF-7). Both growth factors are associated with the promotion of hair growth.
# miRNA-31 = miRNA-31 expression in secretomes of treated HFDPC; type: cell-based, human; conditions: in relation to the controls, FIG. 5(A),(C)
# Excerpt: FIG. 5, related with Assay 1, is a graph showing the expression levels of miRNA-22 (FIG. 5(B)) and miRNA-31 (FIGS. 5(A) and (C)) in secretomas from HFDPC treated with either the peptide of SEQ ID NO: 6 or the cell-free supernatants of Curcuma longa.
# From these secretomes of HFDPC, also the levels of the microRNAs miRNA-31 and miRNA-22 were detected (FIG. 5).
# [5] = group mean, minimal and maximal values not considered
substance,measurement,setting,value
"CH3—C(O)—YIYT-NH2 (Ac-YIYT-NH2) [SEQ ID NO: 6, in vivo: dissolved 0.025% w/w in PBS buffered fortifying solution 2×]",new hairs appeared in the whole hair,[1]; concluded from the mean hair density increase at T150,≤ 14000 hairs
same,Capillary density increase,"[1]; group average, t=90 in relation to t=0, daily application (Table 4)",14.66%
same,"HAIR DENSITY INCREASE T90, Mean",[1]; [5],14.03%
same,"HAIR DENSITY INCREASE T150, Mean",[1]; [5],19.27%
same,HAIR DENSITY INCREASE T90,"[1]; individual volunteers, T90 vs T0",16.66% and 6.06% and 40.91% and 11.11% (2×) and 22.73% and 34.37% and 5.40% and 17.15% and 7.14% and 0.00% (3×) and −9.62%(*) and 70.01%(*) and 4.76% and 39.99% and 9.67% and 11.54%
same,HAIR DENSITY INCREASE T150,"[1]; individual volunteers, T150 vs T0",24.99% and 6.06% and 36.36% and 14.63% and 18.18% and 21.87% and −5.41% and 2.86% and 35.71% and 0.00% (2×) and 14.81% and −7.69%(*) and 60.01% and 38.09% and 7.40% and 73.32%(*) and 9.67% and 42.31%
same,HAIR DENSITY 1/cm2 T90,"[1]; individual volunteers, T90 days",111.38 1/cm2 and 139.22 1/cm2 and 123.31 1/cm2 (2×) and 119.33 1/cm2 (3×) and 107.4 1/cm2 (2×) and 171.04 1/cm2 and 155.13 1/cm2 and 163.09 1/cm2 and 115.35 1/cm2 (2×) and 186.95 1/cm2 and 135.24 1/cm2 (2×) and 87.51 1/cm2 and 83.53 1/cm2
same,Nr HAIRS/0.25 cm2 T90,"[1]; individual volunteers, T90 days, daily application",28 HAIRS/0.25 cm2 and 35 HAIRS/0.25 cm2 and 31 HAIRS/0.25 cm2 (2×) and 30 HAIRS/0.25 cm2 (3×) and 27 HAIRS/0.25 cm2 (2×) and 43 HAIRS/0.25 cm2 and 39 HAIRS/0.25 cm2 and 41 HAIRS/0.25 cm2 and 29 HAIRS/0.25 cm2 (2×) and 47 HAIRS/0.25 cm2 and 34 HAIRS/0.25 cm2 (2×) and 22 HAIRS/0.25 cm2 and 21 HAIRS/0.25 cm2
same,HAIR DENSITY 1/cm2 T150,"[1]; individual volunteers, T150 days",119.33 1/cm2 (2×) and 139.22 1/cm2 (2×) and 123.11 1/cm2 and 103.42 1/cm2 (2×) and 155.13 1/cm2 and 143.2 1/cm2 and 151.15 1/cm2 and 115.35 1/cm2 (3×) and 123.31 1/cm2 (2×) and 190.93 1/cm2 and 127.29 1/cm2 and 135.24 1/cm2 and 147.18 1/cm2
same,Nr HAIRS/0.25 cm2 T150,"[1]; individual volunteers, T150 days, daily application",30 HAIRS/0.25 cm2 (2×) and 35 HAIRS/0.25 cm2 (2×) and 31 HAIRS/0.25 cm2 (3×) and 26 HAIRS/0.25 cm2 (2×) and 39 HAIRS/0.25 cm2 and 36 HAIRS/0.25 cm2 and 38 HAIRS/0.25 cm2 and 29 HAIRS/0.25 cm2 (3×) and 48 HAIRS/0.25 cm2 and 32 HAIRS/0.25 cm2 and 34 HAIRS/0.25 cm2 and 37 HAIRS/0.25 cm2
same,"wound healing potential, Healed Area",[2],independent of its sulfaction state
same,proliferation index of HDF,"[3]; Assay 5, FIG. 16, peptide, nutritive solution, or both in combination",can promote cell proliferation
same,proliferation index of HDF,"[3]; FIGS. 6 and 7, 4Aa at 25, 12.5, 1.25 μg/ml, 5Aa at 1.25, 0.63, 0.25 μg/ml",can promote cell proliferation of HDF
same,levels of insulin growth factor 1 (IGF-1),[4],higher levels were meaningful
same,expression index of miRNA-31,miRNA-31,increase of the expression index of miRNA-31
